Laboratory results published in US11879012B2, “Method of modulating cell proliferation” (METRO NORTH HOSPITAL AND HEALTH SERVICE, priority 2018, dated 2024).

How the values were obtained:
[1] = test system: limbal epithelial cells (LEC); experiment: MTT assay, metabolic response of limbal epithelial cells; format: cell-based; conditions: FIG. 8
Protocol: (§1) Measurement of mitochondrial enzyme activity by MTT conversion was utilised as an indirect assessment of metabolic and proliferative activity. MTT reagent was prepared by diluting the MTT stock solution (5 mg/mL) 1:10 in PBS (i.e., to a final concentration of 0.5 mg/mL MTT). Prior optimization of growth conditions (seeding density and duration in culture) was conducted to ensure sub-confluency at the time of measurement. For example, a seeding density of 10,000 cells per cm^2 and a culture period of 48-hours were routinely used. On the day of analysis, the culture medium was removed from each well and replaced with a fixed volume (0.5 mL per well of a 24 well plate) of MTT solution and incubated at 37° C. for 40 minutes. The MTT reagent was subsequently removed and the formazan product eluted by adding a fixed volume (300 μL per well of a 24 well plate) of acidified isopropanol (24.6 μL of concentrated HCL in 20 mL of isopropanol) to each well for approximately 5 minutes, 150 μL of the eluted stain from each well was then transferred into corresponding wells of a 96 well plate. The optical density was measured using a plate reader at 550 nm (background 620 nm). Spent culture media was removed and the flask rinsed with 5 mL of phosphate buffered saline (without magnesium or calcium; PBSA). After 30 seconds, the PBSA was removed and 5 mL of 0.02% EDTA/0.05% trypsin reagent was added to the cells. The flask was then incubated at 37° C. for 5-8 minutes. The cells were then dislodged from the flask, removed and added to a 50 mL centrifuge tube containing an equal volume of culture media to neutralize the 0.02% EDTA/0.05% trypsin reagent. This tube was then centrifuged at 100 g for 5 minutes to form a pellet of cells. The supernatant was removed and the pellet of cells resuspended. The diluted cells were split 1:3 into new flasks containing culture media. The flasks were then placed in a humidified CO2 (5%) incubator at 37° C. until the cells were approximately 80% confluent. The process was repeated weekly. For the purpose of serum-free culturing, the MEC and LEC cells were serum starved by incubating them in serum-free MCDB-131 medium (Gibco/Life Technologies) for 12 hours. Limbal epithelial cells (LEC) were cultured in a similar manner to MEC in LEC Culture Medium comprising 500 mL of DMEM/F12 media containing 5 mL of 1M L-Glutamine, 5 mL of Pen (10,000 IU/mL)/Strep (10,000 ug/mL) and 10% FCS (v/v). […]

[2] = test system: microvascular endothelial cells (MEC); experiment: MTT assay, metabolic response of microvascular endothelial cells; format: cell-based
Protocol: as §1, with “nm). Microvascular endothelial cells (MEC) were cultured in MEC Culture Medium comprising 500 mL of MCDB-131 media containing 5 mL of 1M L-Glutamine, 5 Penicillin (10,000 IU/mL)/Streptomycin (10,000 ug/mL), 10% v/v foetal calf serum (FCS), 0.5 mL of 1 mg/mL hydrocortisone (Hc) and 0.5 mL of 10 ug/mL epidermal growth factor (EGF).” for “nm).”, “(v/v). Additional reagents used in these experiments are described below: • 0.02% EDTA/0.05% trypsin reagent: 5 mL of 2% EDTA solution and 10 mL of thawed 2.5% trypsin solution were added to 485 mL of PBSA, 50 mL aliquots were dispensed into 50 mL centrifuge tubes and stored below −20° C. • Pre-bound Collagen IV: 250 μL of Collagen IV stock solution was added to the wells of a 24 well tissue culture plate and allowed to dry completely over night in a biohazard cabinet. • Pre-bound Vitronectin: a vitronectin stock solution (2 mg/mL) was diluted in water to a final concentration of 5 μg/mL.” for “(v/v).”

[3] = agent alone, serum-starved cells, 2 days, glucose 10 mg/mL, thrombin 100 IU/mL
[4] = agent alone, serum-starved cells, 2 days, glucose 10 mg/mL, thrombin 100 IU/mL, FIG. 7

## thrombin
[1]; [3]
  proliferation of LEC: did not significantly stimulate proliferation
[1]; glucose with thrombin
  proliferation of LEC: did not significantly stimulate proliferation
[2]; 100 IU/mL thrombin with glucose, FIG. 7
  proliferation of MEC: stimulated proliferation of MEC in synergy with glucose, exceeding the positive control
[2]; [4]
  proliferation of MEC: did not significantly stimulate proliferation of endothelium

## anti-thrombin III
[2]; ATIII 10 IU/mL in the presence of thrombin (+glucose) and pre-bound PSGL-1, FIG. 9
  proliferation of MEC: stimulated the proliferation of MEC

B1: vitronectin: pre-bound basement membrane protein (protein, UniProt P04004 20-478, looked up)
Vitronectin: DQESCKGRCTEGFNVDKKCQCDELCSYYQSCCTDYTAECKPQVTRGDVFTMPEDEYTVYDDGEEKNNATVHEQVGGPSLTSDLQAQSKGNPEQTPVLKPEEEAPAPEVGASKPEGIDSRPETLHPGRPQPPAEEELCSGKPFDAFTDLKNGSLFAFRGQYCYELDEKAVRPGYPKLIRDVWGIEGPIDAAFTRINCQGKTYLFKGSQYWRFEDGVLDPDYPRNISDGFDGIPDNVDAALALPAHSYSGRERVYFFKGKQYWEYQFQHQPSQEECEGSSLSAVFEHFAMMQRDSWEDIFELLFWGRTSAGTRQPQFISRDWHGVPGQVDAAMAGRIYISGMAPRPSLAKKQRFRHRNRKGYRSQRGHSRGRNQNSRRPSRATWLSLFSSEESNLGANNYDDYRMDWLVPATCEPIQSVFFFSGDKYYRVNLRTRRVDTVDPPYPRSIAQYWLGCPAPGHL
[1]; [3]
  proliferation of LEC: did not significantly stimulate proliferation
[2]; [4]
  proliferation of MEC: did not significantly stimulate proliferation of endothelium

B2: P-selectin: pre-bound recombinant human P-selectin (protein, UniProt P16109 42-830, looked up)
P-selectin: WTYHYSTKAYSWNISRKYCQNRYTDLVAIQNKNEIDYLNKVLPYYSSYYWIGIRKNNKTWTWVGTKKALTNEAENWADNEPNNKRNNEDCVEIYIKSPSAPGKWNDEHCLKKKHALCYTASCQDMSCSKQGECLETIGNYTCSCYPGFYGPECEYVRECGELELPQHVLMNCSHPLGNFSFNSQCSFHCTDGYQVNGPSKLECLASGIWTNKPPQCLAAQCPPLKIPERGNMTCLHSAKAFQHQSSCSFSCEEGFALVGPEVVQCTASGVWTAPAPVCKAVQCQHLEAPSEGTMDCVHPLTAFAYGSSCKFECQPGYRVRGLDMLRCIDSGHWSAPLPTCEAISCEPLESPVHGSMDCSPSLRAFQYDTNCSFRCAEGFMLRGADIVRCDNLGQWTAPAPVCQALQCQDLPVPNEARVNCSHPFGAFRYQSVCSFTCNEGLLLVGASVLQCLATGNWNSVPPECQAIPCTPLLSPQNGTMTCVQPLGSSSYKSTCQFICDEGYSLSGPERLDCTRSGRWTDSPPMCEAIKCPELFAPEQGSLDCSDTRGEFNVGSTCHFSCDNGFKLEGPNNVECTTSGRWSATPPTCKGIASLPTPGVQCPALTTPGQGTMYCRHHPGTFGFNTTCYFGCNAGFTLIGDSTLSCRPSGQWTAVTPACRAVKCSELHVNKPIAMNCSNLWGNFSYGSICSFHCLEGQLLNGSAQTACQENGHWSTTVPTCQAGPLTIQEALTYFGGAVASTIGLIMGGTLLALLRKRFRQKDDGKCPLNPHSHLGTYGVFTNAAFDPSP
[2]; pre-bound, in the presence of glucose, absence of collagen IV and vitronectin, FIG. 7
  thrombin-induced proliferation of MEC: reduced the thrombin-induced proliferation of MEC

B3: PSGL-1: pre-bound selectin receptor, P-selectin glycoprotein ligand-1 (protein, UniProt Q14242 42-412, looked up)
P-selectin glycoprotein …: QATEYEYLDYDFLPETEPPEMLRNSTDTTPLTGPGTPESTTVEPAARRSTGLDAGGAVTELTTELANMGNLSTDSAAMEIQTTQPAATEAQTTQPVPTEAQTTPLAATEAQTTRLTATEAQTTPLAATEAQTTPPAATEAQTTQPTGLEAQTTAPAAMEAQTTAPAAMEAQTTPPAAMEAQTTQTTAMEAQTTAPEATEAQTTQPTATEAQTTPLAAMEALSTEPSATEALSMEPTTKRGLFIPFSVSSVTHKGIPMAASNLSVNYPVGAPDHISVKQCLLAILILALVATIFFVCTVVLAVRLSRKGHMYPVRNYSPTEMVCISSLLPDGGEGPSATANGGLSKAKSPGLTPEPREDREGDDLTLHSFLP
[1]; pre-bound, in the presence of glucose
  thrombin induced proliferation of LEC: stimulated thrombin induced proliferation of LEC
